Test results reported in patent publication US20260209210A1, “NEW SUBSTITUTED INDOLE-2-CARBOXAMIDES AS PHGDH INHIBITORS” (Boehringer Ingelheim International GmbH, priority 2022, published 2026).

What was measured:
[1] = Drug transport across human Caco-2 cells (permeability); format: in vitro ADME; details: pH 7.2, 37° C.; for efflux ratio: PEBA/PEAB, Caco-2 monolayers; for Papp A→B: apical-to-basal (absorptive) apparent permeability across Caco-2 monolayers, read-out: PEAB; for Papp B→A: basal-to-apical (secretory) apparent permeability across Caco-2 monolayers, read-out: PEBA
Experimental: The assay provides information on the potential of a compound to pass the cell membrane, on the extent of oral absorption as well as on whether the compound is actively transported by uptake and/or efflux transporters. Permeability measurements across polarized, confluent Caco-2 cell monolayers grown on permeable filter supports are used as the in vitro absorption model. Apparent permeability coefficients (PE) of the compounds across the Caco-2 monolayers are measured (pH 7.2, 37° C.) in apical-to-basal (AB) (absorptive) and basal-to-apical (BA) (secretory) transport direction. AB permeability (PEAB) represents drug absorption from the intestine into the blood and BA permeability (PEBA) drug secretion from the blood back into the intestine via both passive permeability as well as active transport mechanisms mediated by efflux and uptake transporters that are expressed on the Caco-2 cells. The compounds are assigned to permeability/absorption classes by comparison of the AB permeabilities with the AB permeabilities of reference compounds with known in vitro permeability and oral absorption in the human. Identical or similar permeabilities in both transport directions indicate passive permeation, vectorial permeability points to additional active transport mechanisms. […] Active transport is concentration-dependently saturable.
Caco-2 cells obtained from the Leibniz Institute DSMZ-German Collection of Microorganisms and Cell Cultures GmbH (1-2×10^5 cells/1 cm^2 area) are seeded on filter inserts (Costar transwell polycarbonate or PET filters, 0.4 μm pore size) and cultured (DMEM) for 10 to 25 days. Compounds are dissolved in appropriate solvent (like DMSO, 1-20 mM stock solutions). Stock solutions are diluted with HTP-4 buffer (128.13 mM NaCl, 5.36 mM KCl, 1 mM MgSO4, 1.8 mM CaCl2), 4.17 mM NaHCO3, 1.19 mM Na2HPO4×7H2O, 0.41 mM NaH2PO4×H2O, 15 mM HEPES, 20 mM glucose, pH 7.2) containing 0.25% BSA to prepare the transport solutions (0.1-300 μM compound, final DMSO≤0.5%). The transport solution (TL) is applied to the apical or basolateral donor side for measuring A-B or B-A permeability (3 filter replicates), respectively. The receiver side contains HTP-4 buffer supplemented with 0.25% BSA. Samples are collected at the start and end of experiment from the donor and at various time intervals (0, 30, 60, and 90 minutes) for up to 2 hours also from the receiver side for concentration measurement by HPLC-MS/MS or scintillation counting. Sampled receiver volumes are replaced with fresh receiver solution. Compounds are assigned to the following permeability/oral absorption classes: • Very low: […] • Low: 1×10^−7 cm/s<PEAB<6×10^−7 cm/sec • Moderate: 6×10^−7 cm/sec<PEAB<5×10^−6 cm/sec • Good: 5×10^−6 cm/s<[…]
Compounds are classified with respect to (permeability) efflux ratios (PEBA/PEAB) given below whether they are likely to be actively transported: • no: 0.67<=ratio <=1.5 • probable (active efflux): 1.5<ratio <=2 • probable (active uptake): […] • yes (active efflux): 2<ratio • yes (active uptake): ratio <0.5

[2] = target: T1, PHGDH (Homo sapiens, UniProt O43175); test: 3-Phosphoglycerate dehydrogenase (PHGDH) Fluorescence Intensity Assay; format: biochemical; details: full length recombinant PHGDH, 500 μM NAD and 500 μM 3-PG, 240 minutes incubation, room temperature
T1 construct: The full length version of PHGDH enzyme was expressed in BL21 (DE3) E. coli; HIS-tag (N); TEV cleavage site (N); made in house; host or cells: E. coli BL21 (DE3)
T1 sequence (O43175 1-533): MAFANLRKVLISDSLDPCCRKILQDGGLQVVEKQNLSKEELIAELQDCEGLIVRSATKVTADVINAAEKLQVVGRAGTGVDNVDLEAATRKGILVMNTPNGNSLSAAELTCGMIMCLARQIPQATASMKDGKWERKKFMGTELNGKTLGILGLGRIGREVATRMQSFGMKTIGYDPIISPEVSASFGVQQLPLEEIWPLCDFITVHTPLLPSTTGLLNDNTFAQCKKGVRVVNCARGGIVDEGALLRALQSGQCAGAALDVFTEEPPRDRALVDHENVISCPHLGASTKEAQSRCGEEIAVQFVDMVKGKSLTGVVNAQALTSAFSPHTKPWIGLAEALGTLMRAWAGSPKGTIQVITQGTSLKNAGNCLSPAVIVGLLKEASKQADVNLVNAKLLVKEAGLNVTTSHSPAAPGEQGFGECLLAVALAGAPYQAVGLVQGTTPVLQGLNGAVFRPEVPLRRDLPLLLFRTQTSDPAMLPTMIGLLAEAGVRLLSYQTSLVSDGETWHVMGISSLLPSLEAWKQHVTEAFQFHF
Excerpt: 3-Phosphoglycerate dehydrogenase (PHGDH) Fluorescence Intensity Assay This assay is used to identify compounds which inhibit the enzymatic activity of PHGDH which catalyzes the reaction of 3-Phosphoglycerate (3-PG) and NAD to 3-Phosphohydroxypyruvate and NADH.
The produced NADH is used in a coupled reaction for Diaphorase mediated reduction of Resazurin to Resorufin which can be measured in a Fluorescence Intensity readout.
The full length version of PHGDH enzyme was expressed in BL21 (DE3) E. coli through transformation with a plasmid containing the PHGDH cDNA with an N-terminal HIS-tag and a TEV cleavage site. The recombinant protein was then isolated with Ni-NTA beads and eluted on MONO Q ion exchange chromatography columns. The fractions corresponding to PHGDH were de-salted and concentrated to be used in the biochemical assay.
The 3-phosphoglycerate substrate was purchased from Sigma. NAD, Diaphorase and Resazurin were purchased from Sigma Aldrich.
Compounds are dispensed onto assay plates (black, low volume, flat bottom 384 well, Corning) using an Access Labcyte Workstation with the Labcyte Echo 55× from a DMSO solution. For the chosen highest assay concentration of 100 μM, 150 nl of compound solution are transferred from a 10 mM DMSO compound stock solution. A series of 11 concentrations (10 1:5 steps) is transferred for each compound.
DMSO is added such that every well has a total of 150 nl compound solution.
The assay has been performed using 500 μM NAD and 500 μM 3-PG (final assay concentrations).
5 μl of PHGDH protein (final assay concentration 100 ng/ml) in assay buffer (125 mM Tris-HCl, pH 7.5; 56.25 mM hydrazine sulfate pH 9.0; 2.5 mM EDTA; assay specific NAD concentration; 0.0125% Tween20) are added to the 150 nl of compounds.
10 μl of a mix containing assay specific 3-PG concentration (500 μM), Resazurin (25 µM final assay concentration) and Diaphorase (35 μg/ml final assay concentration) are added. Plates are kept at room temperature. After 240 minutes incubation time the fluorescence signal is measured in a PerkinElmer Envision HTS Multilabel Reader with an excitation wavelength at 530-560 nm and an emission wavelength at 590 nm.
Each plate contains negative controls (diluted DMSO instead of test compound; reaction as described with PHGDH protein) and positive controls (diluted DMSO instead of test compound; reaction as described with buffer instead of PHGDH protein). Negative and positive control values are used for normalization.
A known inhibitor of PHGDH activity is used as internal control.
IC50 values are calculated and analyzed in the MEGALAB IC50 application using a 4 parametric logistic model.

efflux ratio [1] | Papp A→B [1] [nm/s] | Papp B→A [1] [nm/s] | IC50 [2] [µM] | Structure (SMILES)
1.1 | 79 | 84 | 0.943 | Cc1cc2c(cc1Cl)cc(C(=O)N[C@H](C)c1ccc(C3(C(=O)O)CCOCC3)cc1)n2C [Example 6]
0.8 | 120 | 92 | 0.031 | Cc1cc2c(cc(C(=O)N[C@H](C)c3ccc(C4(C(=O)O)CCOCC4)cc3)n2C)c(F)c1F [Example 4]
0.9 | 171 | 146 | 0.006 | Cc1cc2c(cc(C(=O)N[C@H](C)c3ccc(C4(C(=O)O)CCOCC4)cc3)n2C)c(Cl)c1Cl [Example 1]
1.8 | 2 | 4 | – | Cc1cc(Cl)c2cc(C(=O)N[C@H](C)c3ccc(S(=O)(=O)C4(C(=O)O)CCCC4)cc3)n(C)c2c1 [Comp-2, reference compound]
– | < 4 | 2 | – | Cc1cc(Cl)c2cc(C(=O)N[C@H](C)c3ccc(S(=O)(=O)C4(C(=O)O)CCOCC4)cc3)n(C)c2c1 [Comp-1, reference compound]
0.6 | 160 | 91 | 0.01 | Cc1cc2c(cc(C(=O)N[C@H](C)c3ccc(C4(C(=O)O)CCOCC4)cc3)n2C)c(Cl)c1F [Example 3]
1.2 | 110 | 130 | 0.027 | Cc1cc2c(cc(C(=O)N[C@H](C)c3ccc(C4(C(=O)O)CCOCC4)cc3)n2C)c(F)c1Cl [Example 2]
17 | 1 | 17 | – | Cc1cc(Cl)c2cc(C(=O)N[C@H](C)c3ccc(S(=O)(=O)C4(C(=O)O)CC4)cc3)n(C)c2c1 [Comp-3, reference compound]
1.2 | 100 | 120 | 0.025 | Cc1cc(Cl)c2cc(C(=O)N[C@H](C)c3ccc(C4(C(=O)O)CCOCC4)cc3)n(C)c2c1 [Example 5]
